The record followed here is US11230526B1, “Cylcoalkenyl derivatives useful as agonists of the GPR120 and/or GPR40 receptors” (Janssen Pharmaceutica NV, priority 2018, dated 2022).

Test [1] has as its target T1, short form of the GPR120 receptor (Homo sapiens, UniProt Q5NUL3).
T1 construct: host or cells: PathHunter CHO-K1 GPR120S β-Arrestin Cell Line
The experiment in a line: Human GPR120 DiscoveRx PathHunter Beta-Arrestin assay, Procedure β-arrestin B. The format is cell-based.

The target in the next test is T2, Human GPR120 short form (Homo sapiens, UniProt Q5NUL3).
T2 construct: expressed in transfected cells
T2 sequence (Q5NUL3 1-361): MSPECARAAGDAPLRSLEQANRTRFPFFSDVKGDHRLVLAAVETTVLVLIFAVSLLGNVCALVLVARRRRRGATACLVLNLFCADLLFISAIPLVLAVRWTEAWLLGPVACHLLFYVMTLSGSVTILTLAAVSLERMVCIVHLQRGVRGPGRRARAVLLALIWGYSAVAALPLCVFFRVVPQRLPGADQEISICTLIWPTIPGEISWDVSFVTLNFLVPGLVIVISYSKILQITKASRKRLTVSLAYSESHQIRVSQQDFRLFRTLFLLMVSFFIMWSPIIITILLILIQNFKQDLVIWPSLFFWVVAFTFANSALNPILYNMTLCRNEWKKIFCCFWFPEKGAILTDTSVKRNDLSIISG
The experiment in a line: Human GPR120 calcium flux assay, Procedure Calcium B (4200 cells/well). The test is classed as cell-based. The method, boiled down:
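Agonist EC50 came from a four-parameter fit of RFU (Fmax−Fmin) read over 300 s on FLIPR. Cells were HEK293 stably transfected with human GPR120 (NM_001195755.1) at 4200 per well, serum-starved 1 h and loaded with Fluo-4 NW dye with probenecid before ligand addition.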
For orientation: Calcium assays in cells follow changes in intracellular calcium, usually with a dye or a luminescent sensor.

T1 sequence (P32121 whole entry partner, one chain of several): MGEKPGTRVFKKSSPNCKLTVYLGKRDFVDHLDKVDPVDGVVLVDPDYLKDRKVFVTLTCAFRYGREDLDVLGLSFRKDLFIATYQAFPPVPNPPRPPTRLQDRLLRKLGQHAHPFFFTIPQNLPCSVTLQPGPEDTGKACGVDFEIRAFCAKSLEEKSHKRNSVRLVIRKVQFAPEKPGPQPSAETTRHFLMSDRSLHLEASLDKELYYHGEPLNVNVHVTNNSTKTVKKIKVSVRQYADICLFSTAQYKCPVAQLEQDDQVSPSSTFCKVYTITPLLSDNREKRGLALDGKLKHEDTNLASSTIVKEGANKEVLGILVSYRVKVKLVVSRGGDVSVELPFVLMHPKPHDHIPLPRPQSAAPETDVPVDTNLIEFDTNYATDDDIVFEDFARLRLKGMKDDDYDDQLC

In general, EC50 refers to the midpoint of the concentration-response curve. `Cc1ccc(C2=C(COc3c(F)cc(CCC(=O)O)cc3F)CCC2)cc1[N+](=O)[O-]` [Compound 109, 3-(3,5-difluoro-4-((2-(4-methyl-3-nitrophenyl)cyclopent-1-en-1-yl)methoxy)phenyl)Propanoic Acid]: the 50% effective concentration (EC50) came to 2460 nM in test [1] and 1290 nM on Human GPR120 short form.
As for `Cc1c(CCC(=O)O)ccc(OCC2=C(c3ccccc3)CCC2)c1C` [Compound 23, 3-(2,3-dimethyl-4-((2-phenylcyclopent-1-en-1-yl)methoxy)phenyl)Propanoic Acid], the EC50 was found to be 337 nM in test [1] and 114 nM on Human GPR120 short form.
For `Cc1c(CCC(=O)O)ccc(OCC2=C(c3cccc(Cl)c3)CCC2)c1C` [Compound 58, 3-[4-[[2-(3-chlorophenyl)cyclopenten-1-yl]methoxy]-2,3-dimethyl-phenyl]Propanoic Acid], the results for the EC50 (in test [1]; on Human GPR120 short form) were 275 nM and 159 nM, respectively.
`Cc1ccc(C2=C(COc3ccc(CCC(=O)O)c(C)c3C)CCC2)c(C)c1` [Compound 82]: the EC50 amounted to 1090 nM in test [1] and 242 nM on Human GPR120 short form.
Turning to `Cc1c(CCC(=O)O)ccc(OCC2=C(c3ccc(Cl)cc3)CCCC2)c1C` [Compound 474, 3-[4-[[2-(4-chlorophenyl)cyclohexen-1-yl]methoxy]-2,3-dimethyl-phenyl]Propanoic Acid], the EC50 in test [1] was 1030 nM; on Human GPR120 short form it was 79 nM.
For `Cc1c(CCC(=O)O)ccc(OCC2=C(c3ccc(N(C)C)cc3)CCCC2)c1C` [Compound 512, 3-[4-[[2-(4-dimethylaminophenyl)cyclohexen-1-yl]methoxy]-2,3-dimethyl-phenyl]Propanoic Acid], in that order: 803 nM and 140 nM.
Take `Cc1c(CCC(=O)O)ccc(OCC2=C(c3ccccc3)CCCC2)c1C` [Compound 472, 3-[2,3-dimethyl-4-[(2-phenylcyclohexen-1-yl)methoxy]phenyl]Propanoic Acid]: the EC50 in test [1] amounted to 488 nM; on Human GPR120 short form, 32 nM.
